What was measured:
endoglucanase 44A = assay: Enzymatic hydrolysis in solution with purified endoglucanase 44A, MS-TOF assay; format: biochemical, Clostridium thermocellum; conditions: reaction in solution
Protocol: To verify, the exoglucanases (L3) and endoglucanase (44A) were prepared according methods well known in the literature with minor modifications. First, enzymatic hydrolysis reactions were conducted in solution with the purified enzymes using substrates 8, 9 and 10. At the completion of the reaction, the solution mixtures were transferred to the PTFE-like ACG slide, and prepared by using the same washing procedures before being subjected to MS-TOF assay.
For each carbohydrate, a specific enzyme was added: (a) is the control run without enzymes, (b) is exoglucanase L3, and (c) is endoglucanase 44A. […]
(§1) Cellulase was prepared (5 U/mL in 25 mM pH 5.05 NaOAc buffer solution). Substrate was also dissolved in NaOAc buffer solution (25 mM, pH 5.05) to give 0.5 mM substrate solution. Add 100 uL cellulase solution to 100 uL substrate solution in eppendorf to have a 2.5 U/mL cellulase solution with 0.25 mM substrate. This solution was incubated in 37° C. for 18 hours. Add 100 μL incubated solution onto the slide loaded in FAST® Frame. Put the slide in dry box to remove the water, and then use high vacuum to remove trace water. 100 μL water was used to rinse each well of the FAST® Frame multi-slide plate to solve and remove the salt of the buffer solution. Remove any residual water on the plate by high vacuum and then analyzed the slide by MALDI-TOF Ultra-Flex II.
The genomic DNA of Sulfolobus solfataricus (ATCC 35092) and Clostridium thermocellum (ATCC 27405) were obtained from the ATCC biological resource center. The Sso7d (NCBI accession number: AAK42090) gene fragment was amplified directly from the Sulfolobus solfataricus genome by polymerase chain reaction (PCR) with forward 5′ […] 3′ (SEQ ID NO: 1) and reverse 5′ […] 3′ (SEQ ID NO: 2) primers. The PCR product encoding Sso7d was digested with NdeI and BamHI and subsequently cloned into expression vector pET-28a (Novagen) to generate pET-28-Sso7d. […]

cellulase from T. reesei = assay: Enzymatic hydrolysis in solution with cellulase from T. reesei, MS-TOF readout; format: biochemical, Trichoderma reesei; conditions: reaction in solution
Protocol: Enzymatic hydrolysis of the immobilized poly-fluorinated cellobiose 8 (see FIG. 14) was first conducted in situ on the phosphonic acid slide surface. Three commercially available cellulases, Aspergillus niger (A. niger), Trichoderma reesei (T. reesei), and Trichoderma viride (T. viride) were prepared separately at 5 U/mL in a sodium acetate (25 mM) buffer solution (pH 5) and loaded onto the functionalized slide which has been divided into 16 wells using Fast Frame reaction chambers. For comparison, an aliquot of enzyme solution (100 μL) was added to the solution of fluorinated cellobiose (100 μL of 0.5 mM) in eppendorfs to carry out the enzymatic hydrolysis reactions in solution. After the reaction, it was transferred to the empty wells of the same slide. Each well was rinsed separately three times with de-ionized water and the slide was dried again under high vacuum before subjecting to MS-TOF analysis.
Under MS-TOF analysis, the clean background baseline allowed calculation of the percentage of hydrolyzed components for each sample. As shown in the MS-TOF results in FIG. 20, percentages of hydrolyzed products are calculated from the peak intensities of each spectrum. According to implementations of experimental data shown in FIG. 20, MS-TOF data of enzymatic hydrolysis of poly-fluorinated cellobiose in solution in FIG. 20A and immobilized on PTFE-like ACG slide in FIG. 20B. The control are the same experimental conditions run without enzymes in (a); (b), (c), and (d) are experimental conditions with the cellulase proteins from A. niger (b), T. reesei (c), and T. viride (d).
as §1

SMILES	Cleavage of the substrate by endoglucanase 44A (in words) (endoglucanase 44A)	Biose (un-hydrolyzed cellobiose), percentage of hydrolyzed pattern (cellulase from T. reesei; T. reesei cellulase, pH 5)	F-tail, percentage of hydrolyzed pattern (cellulase from T. reesei; T. reesei cellulase, pH 5)	Glucose, percentage of hydrolyzed pattern (cellulase from T. reesei; T. reesei cellulase, pH 5)	Triose, percentage of hydrolyzed pattern (cellulase from T. reesei; T. reesei cellulase, pH 5)	Hydrolysis of the substrate by the enzyme from T. reesei compared with the enzymes from the other two species (in words) (cellulase from T. reesei)
O=C(NCCCCCO[C@@H]1O[C@H](CO)[C@@H](O[C@@H]2O[C@H](CO)[C@@H](O)[C@H](O)[C@H]2O)[C@H](O)[C@H]1O)OCCCC(F)(F)C(F)(F)C(F)(F)C(F)(F)C(F)(F)C(F)(F)C(F)(F)C(F)(F)F [Compound 8, [(4,4,5,5,6,6,7,7,8,8,9,9,10,10,11,11,12,12,12-nonadecafluorododecoxycarbonyl-amino)pentyl] ß-D-cellobioside]	can't accept	7%	0%	93%	0/0%	–
O=C(NCCCCCO[C@@H]1O[C@H](CO)[C@@H](O[C@@H]2O[C@H](CO)[C@@H](O[C@@H]3O[C@H](CO)[C@@H](O)[C@H](O)[C@H]3O)[C@H](O)[C@H]2O)[C@H](O)[C@H]1O)OCCCC(F)(F)C(F)(F)C(F)(F)C(F)(F)C(F)(F)C(F)(F)C(F)(F)C(F)(F)C(F)(F)F [Compound 9, [(4,4,5,5,6,6,7,7,8,8,9,9,10,10,11,11,12,12,12-nonadecafluorododecoxycarbonyl-amino)pentyl] ß-D-glucopyranosyl-(1→4)-ß-D-glucopyranosyl-(1→4)- -ß-D-glucopyranoside]	can't accept	–	–	–	–	most efficiently

— patent US10274488B2, “Glycan arrays on PTFE-like aluminum coated glass slides and related methods” (Academia Sinica, priority 2008, dated 2019)
